Data reported in PubChem BioAssay (NCI).
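Method: 48-hour compound exposure of cells in 96-well plates, five concentrations, linear interpolation of endpoints. GI50 = concentration required for 50% inhibition of growth. TGI is the concentration that stops growth completely.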

What was measured:
Assay in all cases: NCI anticancer screen, dose series, 48 h
HOP-62 NSCLC = tested on: HOP-62 NSCLC
UACC-62 melanoma = tested on: UACC-62 melanoma
TK-10 renal = tested on: TK-10 renal
EKVX NSCLC = tested on: EKVX NSCLC
NCI-H522 lung = tested on: NCI-H522 lung
SF-268 CNS = tested on: SF-268 CNS
SF-295 CNS = tested on: SF-295 CNS
K-562 leukemia = tested on: K-562 leukemia
A498 renal = tested on: A498 renal
UO-31 renal = tested on: UO-31 renal

SMILES | TGI (HOP-62 NSCLC) | TGI (UACC-62 melanoma) | TGI (TK-10 renal) | TGI (EKVX NSCLC) | TGI (NCI-H522 lung) | TGI (SF-268 CNS) | TGI (SF-295 CNS) | TGI (K-562 leukemia) | TGI (A498 renal) | TGI (UO-31 renal) | GI50 (HOP-62 NSCLC) | GI50 (UACC-62 melanoma) | GI50 (TK-10 renal) | GI50 (EKVX NSCLC) | GI50 (NCI-H522 lung) | GI50 (SF-268 CNS) | GI50 (SF-295 CNS) | GI50 (K-562 leukemia) | GI50 (A498 renal) | GI50 (UO-31 renal)
Cn1c(=O)nc2n(-c3ccc(Cl)c(C(F)(F)F)c3)c3ccccc3nc-2c1=O | > 100 µM | 35.4 µM | > 100 µM | > 83.9 µM | 73 µM | > 100 µM | > 100 µM | > 100 µM | > 100 µM | > 100 µM |  |  |  |  |  |  |  |  |  | 
C[C@]12C/C(=C/O)C(=O)C(O)=C1CC[C@@H]1C2CC[C@@]2(C)C1CC[C@@H]2O (stereo not given in full) | > 100 µM | 46.7 µM | > 100 µM | 72.8 µM | 32 µM | 54.1 µM | 72.5 µM | 82.2 µM | 65.1 µM | 31.3 µM |  |  |  |  |  |  |  |  |  | 
Nc1cc(-c2ccc(Cl)cc2)nn1-c1nnc(/C=C/c2ccco2)c(=O)[nH]1 | 60.1 µM | > 58.6 µM | 36.1 µM | > 55.7 µM | 40.3 µM | 39 µM | 27.7 µM | > 48 µM | 6.9 µM | 22.6 µM | 6.83 µM | 5.45 µM | 5.6 µM | 4.11 µM | 8.95 µM | 3.37 µM | 2.1 µM | 2.98 µM | 1.78 µM | 2.41 µM
CCn1c(-c2nonc2N)nc2ccncc21 | > 25 µM | > 25 µM | > 25 µM | > 25 µM | > 25 µM | > 25 µM | > 25 µM | > 25 µM | > 25 µM | > 25 µM | > 25 µM | > 25 µM | > 25 µM | > 25 µM | > 25 µM | > 25 µM | > 25 µM | > 25 µM | > 25 µM | > 25 µM
CCCCCCC(C)CCCCCCCCCCC(=O)O (stereo not given) | > 100 µM | > 100 µM | > 100 µM | > 100 µM | > 100 µM | > 100 µM | > 100 µM | > 100 µM | > 100 µM | > 100 µM |  |  |  |  |  |  |  |  |  | 
COC(=O)c1ccc2c(c1)C(=O)c1c-2n(CCCN=[N+]=[N-])c(=O)c2cc([N+](=O)[O-])ccc12 | 67.5 µM | > 100 µM | 68.6 µM | > 100 µM | > 100 µM | > 100 µM | > 100 µM | > 100 µM | > 100 µM | > 100 µM | 25.8 µM | 37.2 µM | 29.6 µM | 83.5 µM | 34.3 µM | 17.3 µM | 59.8 µM | 48 µM | > 100 µM | > 100 µM
CC1OC(c2ccc3c(c2O)C(=O)C2=C(C3=O)C3(O)C(=O)CC(C)(O)CC3(O)C=C2)CC(O)C1O (stereo not given) | 60.7 µM | 30.4 µM | 28.6 µM | 33.9 µM | 5.86 µM | > 60 µM | 34.2 µM | 14.3 µM | 34.5 µM | 36.9 µM |  |  |  |  |  |  |  |  |  | 
COc1ccc(C2Oc3c(c(O)cc4c3[C@H](c3ccc(O)cc3O)[C@H](O)C(c3ccc(O)c(O)c3)O4)C[C@@H]2O)cc1O (stereo not given in full) | > 100 µM | > 100 µM | > 100 µM | > 100 µM | > 100 µM | > 100 µM | > 100 µM | > 100 µM | > 100 µM | > 100 µM |  |  |  |  |  |  |  |  |  | 
COc1c(O)c(OC)c2oc(-c3ccc(O)cc3)c(OC)c(=O)c2c1O | 94.9 µM | > 100 µM | > 100 µM | > 100 µM | 70.9 µM | 34.1 µM | > 100 µM | > 100 µM | > 100 µM | > 100 µM |  |  |  |  |  |  |  |  |  | 
Cc1cc(C)n(C2=NS(=O)(=O)c3ccccc3N2C)n1 | > 100 µM | > 100 µM | > 100 µM | > 100 µM | > 100 µM | > 100 µM | > 100 µM | > 100 µM | > 100 µM | > 100 µM |  |  |  |  |  |  |  |  |  | 
